# Source: PubChem BioAssay (NCI)
#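 Growth conditions: 96-well plates. Treatment: test compound, 48 hours, 5 concentrations. Analysis: linear interpolation between bracketing concentrations; unreached endpoints set to highest concentration. At the TGI there is no net growth.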 *1 amine or outer side, *2 acyl side, *3 side chain or, on linkers, in order; H or OH if unused. Where a SMILES comes first, the peptide text is derived from it. Bridges are numbered along the chain shown (N, C = ends). Roman numbers before positions name the chains, in order. [ ]: non-standard residue; d: D form. Actinocin(9to1) = Cc1c2oc3c(C)ccc(C(=O)[*:1])c3nc-2c(C(=O)[*:2])c(N)c1=O; NMeV = CN[CH](C(=O)O)C(C)C; Sar = CNCC(=O)O
# Assays:
# Assay in all cases: DTP human tumour cell line panel, 48 h
# 786-0 renal = tested on: 786-0 renal
# A498 renal = tested on: A498 renal
# ACHN renal = tested on: ACHN renal
# BT-549 breast = tested on: BT-549 breast
# CAKI-1 renal = tested on: CAKI-1 renal
# CCRF-CEM leukemia = tested on: CCRF-CEM leukemia
# COLO 205 colon = tested on: COLO 205 colon
# DU-145 prostate = tested on: DU-145 prostate
# EKVX NSCLC = tested on: EKVX NSCLC
# HCC-2998 colon = tested on: HCC-2998 colon
# HCT-116 colon = tested on: HCT-116 colon
# HCT-15 colon = tested on: HCT-15 colon
# HL-60(TB) leukemia = tested on: HL-60(TB) leukemia
# HOP-62 NSCLC = tested on: HOP-62 NSCLC
# HOP-92 NSCLC = tested on: HOP-92 NSCLC
# HS 578T breast = tested on: HS 578T breast
# HT29 colon = tested on: HT29 colon
# IGROV1 ovarian = tested on: IGROV1 ovarian
# K-562 leukemia = tested on: K-562 leukemia
# KM12 colon = tested on: KM12 colon
# LOX IMVI melanoma = tested on: LOX IMVI melanoma
# M14 melanoma = tested on: M14 melanoma
# MALME-3M melanoma = tested on: MALME-3M melanoma
# MCF7 breast = tested on: MCF7 breast
# MDA-MB-231 breast = tested on: MDA-MB-231 breast
# MDA-MB-435 = tested on: MDA-MB-435
# MDA-N = tested on: MDA-N
# MOLT-4 leukemia = tested on: MOLT-4 leukemia
# NCI-H226 lung = tested on: NCI-H226 lung
# NCI-H23 lung = tested on: NCI-H23 lung
# NCI-H460 lung = tested on: NCI-H460 lung
# NCI-H522 lung = tested on: NCI-H522 lung
# NCI/ADR-RES ovarian = tested on: NCI/ADR-RES ovarian
# OVCAR-3 ovarian = tested on: OVCAR-3 ovarian
# OVCAR-4 ovarian = tested on: OVCAR-4 ovarian
# OVCAR-5 ovarian = tested on: OVCAR-5 ovarian
# OVCAR-8 ovarian = tested on: OVCAR-8 ovarian
# PC-3 prostate = tested on: PC-3 prostate
# RPMI-8226 leukemia = tested on: RPMI-8226 leukemia
# RXF 393 renal = tested on: RXF 393 renal
# SF-268 CNS = tested on: SF-268 CNS
# SF-295 CNS = tested on: SF-295 CNS
# SF-539 CNS = tested on: SF-539 CNS
# SK-MEL-2 melanoma = tested on: SK-MEL-2 melanoma
# SK-OV-3 ovarian = tested on: SK-OV-3 ovarian
# SN12C renal = tested on: SN12C renal
# SNB-19 CNS = tested on: SNB-19 CNS
# SNB-75 CNS = tested on: SNB-75 CNS
# SW-620 colon = tested on: SW-620 colon
# T-47D breast = tested on: T-47D breast
# TK-10 renal = tested on: TK-10 renal
# U251 CNS = tested on: U251 CNS
# UACC-257 melanoma = tested on: UACC-257 melanoma
# UACC-62 melanoma = tested on: UACC-62 melanoma
# A549 NSCLC = tested on: A549 NSCLC
# SK-MEL-28 melanoma = tested on: SK-MEL-28 melanoma
# SK-MEL-5 melanoma = tested on: SK-MEL-5 melanoma
# SR leukemia = tested on: SR leukemia
# UO-31 renal = tested on: UO-31 renal
compound,measurement,setting,value
O=c1cc(N2CCCC2)[nH]c(=O)n1-c1cccc(C(F)(F)F)c1,TGI,786-0 renal,> 100 µM
same,TGI,A498 renal,> 100 µM
same,TGI,ACHN renal,> 100 µM
same,TGI,BT-549 breast,> 100 µM
same,TGI,CAKI-1 renal,> 100 µM
same,TGI,CCRF-CEM leukemia,> 100 µM
same,TGI,COLO 205 colon,> 100 µM
same,TGI,DU-145 prostate,> 100 µM
same,TGI,EKVX NSCLC,> 100 µM
same,TGI,HCC-2998 colon,> 100 µM
same,TGI,HCT-116 colon,> 100 µM
same,TGI,HCT-15 colon,> 100 µM
same,TGI,HL-60(TB) leukemia,> 100 µM
same,TGI,HOP-62 NSCLC,> 100 µM
same,TGI,HOP-92 NSCLC,> 100 µM
same,TGI,HS 578T breast,> 100 µM
same,TGI,HT29 colon,> 100 µM
same,TGI,IGROV1 ovarian,> 100 µM
same,TGI,K-562 leukemia,> 100 µM
same,TGI,KM12 colon,> 100 µM
same,TGI,LOX IMVI melanoma,> 100 µM
same,TGI,M14 melanoma,> 100 µM
same,TGI,MALME-3M melanoma,> 100 µM
same,TGI,MCF7 breast,> 100 µM
same,TGI,MDA-MB-231 breast,> 100 µM
same,TGI,MDA-MB-435,> 100 µM
same,TGI,MDA-N,> 100 µM
same,TGI,MOLT-4 leukemia,> 100 µM
same,TGI,NCI-H226 lung,> 100 µM
same,TGI,NCI-H23 lung,> 100 µM
same,TGI,NCI-H460 lung,> 100 µM
same,TGI,NCI-H522 lung,> 100 µM
same,TGI,NCI/ADR-RES ovarian,> 100 µM
same,TGI,OVCAR-3 ovarian,> 100 µM
same,TGI,OVCAR-4 ovarian,> 100 µM
same,TGI,OVCAR-5 ovarian,> 100 µM
same,TGI,OVCAR-8 ovarian,> 100 µM
same,TGI,PC-3 prostate,> 100 µM
same,TGI,RPMI-8226 leukemia,> 100 µM
same,TGI,RXF 393 renal,> 100 µM
same,TGI,SF-268 CNS,> 100 µM
same,TGI,SF-295 CNS,> 100 µM
same,TGI,SF-539 CNS,> 100 µM
same,TGI,SK-MEL-2 melanoma,> 100 µM
same,TGI,SK-OV-3 ovarian,> 100 µM
same,TGI,SN12C renal,> 100 µM
same,TGI,SNB-19 CNS,> 100 µM
same,TGI,SNB-75 CNS,> 100 µM
same,TGI,SW-620 colon,> 100 µM
same,TGI,T-47D breast,> 100 µM
same,TGI,TK-10 renal,> 100 µM
same,TGI,U251 CNS,> 100 µM
same,TGI,UACC-257 melanoma,> 100 µM
same,TGI,UACC-62 melanoma,> 100 µM
COc1ccc2c(c1)N=C1CSC(c3ccccc3Cl)N1C2 (centres undefined),TGI,786-0 renal,31.6 µM
same,TGI,A549 NSCLC,31.9 µM
same,TGI,ACHN renal,41.8 µM
same,TGI,BT-549 breast,> 100 µM
same,TGI,CAKI-1 renal,24.6 µM
same,TGI,COLO 205 colon,42.4 µM
same,TGI,EKVX NSCLC,22 µM
same,TGI,HCC-2998 colon,18.1 µM
same,TGI,HCT-116 colon,18.8 µM
same,TGI,HCT-15 colon,87.8 µM
same,TGI,HL-60(TB) leukemia,4.76 µM
same,TGI,HOP-62 NSCLC,34.5 µM
same,TGI,HOP-92 NSCLC,82.5 µM
same,TGI,HS 578T breast,> 100 µM
same,TGI,HT29 colon,19.6 µM
same,TGI,K-562 leukemia,75.7 µM
same,TGI,KM12 colon,18.4 µM
same,TGI,LOX IMVI melanoma,23 µM
same,TGI,M14 melanoma,28.3 µM
same,TGI,MALME-3M melanoma,73.9 µM
same,TGI,MCF7 breast,53.5 µM
same,TGI,MDA-MB-231 breast,> 100 µM
same,TGI,MDA-MB-435,27.7 µM
same,TGI,MDA-N,26.8 µM
same,TGI,MOLT-4 leukemia,15.7 µM
same,TGI,NCI-H226 lung,50.5 µM
same,TGI,NCI-H23 lung,49.9 µM
same,TGI,NCI-H460 lung,15.4 µM
same,TGI,NCI-H522 lung,51.4 µM
same,TGI,NCI/ADR-RES ovarian,72.3 µM
same,TGI,OVCAR-4 ovarian,35.6 µM
same,TGI,OVCAR-5 ovarian,28.2 µM
same,TGI,OVCAR-8 ovarian,42.4 µM
same,TGI,PC-3 prostate,58.5 µM
same,TGI,RPMI-8226 leukemia,35.3 µM
same,TGI,RXF 393 renal,25.4 µM
same,TGI,SF-268 CNS,76.2 µM
same,TGI,SF-295 CNS,42.4 µM
same,TGI,SF-539 CNS,22.6 µM
same,TGI,SK-MEL-2 melanoma,30.3 µM
same,TGI,SK-MEL-28 melanoma,40.8 µM
same,TGI,SK-MEL-5 melanoma,31.4 µM
same,TGI,SK-OV-3 ovarian,47.5 µM
same,TGI,SN12C renal,37.5 µM
same,TGI,SNB-19 CNS,> 100 µM
same,TGI,SNB-75 CNS,40.6 µM
same,TGI,SR leukemia,16 µM
same,TGI,SW-620 colon,39.5 µM
same,TGI,T-47D breast,> 100 µM
same,TGI,TK-10 renal,41.8 µM
same,TGI,U251 CNS,66.8 µM
same,TGI,UACC-257 melanoma,32.7 µM
same,TGI,UACC-62 melanoma,20.3 µM
same,TGI,UO-31 renal,1.8 µM
"Cc1c2oc3c(C)ccc(C(=O)NC4C(=O)NC(C(C)O)C(=O)N5CCCC5C(=O)N(C)CC(=O)N(C)C(C(C)C)C(=O)OC4C)c3nc-2c(C(=O)NC2C(=O)NC(C(C)O)C(=O)N3CCCC3C(=O)N(C)CC(=O)N(C)C(C(C)C)C(=O)OC2C)c(N)c1=O (centres undefined) (I: TTP[Sar][NMeV] / II: TTP[Sar][NMeV]; ester I:1-I:C, II:1-II:C; linker I:N-II:N via Actinocin(9to1); configuration not given here)",TGI,A498 renal,2.71 µM
same,TGI,A549 NSCLC,32.1 µM
same,TGI,ACHN renal,10.9 µM
same,TGI,BT-549 breast,1.03 µM
same,TGI,CAKI-1 renal,> 100 µM
same,TGI,CCRF-CEM leukemia,5 µM
same,TGI,COLO 205 colon,0.762 µM
same,TGI,DU-145 prostate,> 100 µM
same,TGI,EKVX NSCLC,> 42.2 µM
same,TGI,HCC-2998 colon,> 30.3 µM
same,TGI,HCT-116 colon,> 100 µM
same,TGI,HCT-15 colon,> 100 µM
same,TGI,HL-60(TB) leukemia,5.12 µM
same,TGI,HOP-62 NSCLC,10 µM
same,TGI,HS 578T breast,72 µM
same,TGI,HT29 colon,4.19 µM
same,TGI,IGROV1 ovarian,> 100 µM
same,TGI,K-562 leukemia,3.43 µM
same,TGI,KM12 colon,> 30.1 µM
same,TGI,LOX IMVI melanoma,0.984 µM
same,TGI,M14 melanoma,3.77 µM
same,TGI,MCF7 breast,1.06 µM
same,TGI,MDA-MB-231 breast,> 100 µM
same,TGI,MDA-MB-435,3.81 µM
same,TGI,MDA-N,11.8 µM
same,TGI,MOLT-4 leukemia,0.598 µM
same,TGI,NCI-H226 lung,0.803 µM
same,TGI,NCI-H23 lung,4.8 µM
same,TGI,NCI-H460 lung,> 100 µM
same,TGI,NCI-H522 lung,1.14 µM
same,TGI,NCI/ADR-RES ovarian,> 100 µM
same,TGI,OVCAR-3 ovarian,4.71 µM
same,TGI,OVCAR-4 ovarian,> 63.3 µM
same,TGI,OVCAR-5 ovarian,44.2 µM
same,TGI,OVCAR-8 ovarian,> 82.4 µM
same,TGI,PC-3 prostate,> 100 µM
same,TGI,RPMI-8226 leukemia,1.55 µM
same,TGI,RXF 393 renal,1.29 µM
same,TGI,SF-268 CNS,> 100 µM
same,TGI,SF-295 CNS,> 100 µM
same,TGI,SF-539 CNS,1.44 µM
same,TGI,SK-MEL-2 melanoma,1.03 µM
same,TGI,SK-MEL-28 melanoma,2.75 µM
same,TGI,SK-MEL-5 melanoma,1.74 µM
same,TGI,SK-OV-3 ovarian,> 100 µM
same,TGI,SN12C renal,> 100 µM
same,TGI,SNB-19 CNS,> 100 µM
same,TGI,SNB-75 CNS,1.95 µM
same,TGI,SR leukemia,0.047 µM
same,TGI,SW-620 colon,> 100 µM
same,TGI,T-47D breast,> 100 µM
same,TGI,TK-10 renal,6.18 µM
same,TGI,U251 CNS,> 100 µM
same,TGI,UACC-257 melanoma,3.2 µM
same,TGI,UACC-62 melanoma,0.528 µM
same,TGI,UO-31 renal,19.6 µM
